What was measured:
[1] = target: T1, Glucose-dependent insulinotropic receptor (Rattus norvegicus, UniProt Q7TQN8); assay: […] of rat GPR119 activity by homogeneous time resolved fluorescence cyclase (cAMP) assay; type: functional
T1 sequence (Q7TQN8 whole entry): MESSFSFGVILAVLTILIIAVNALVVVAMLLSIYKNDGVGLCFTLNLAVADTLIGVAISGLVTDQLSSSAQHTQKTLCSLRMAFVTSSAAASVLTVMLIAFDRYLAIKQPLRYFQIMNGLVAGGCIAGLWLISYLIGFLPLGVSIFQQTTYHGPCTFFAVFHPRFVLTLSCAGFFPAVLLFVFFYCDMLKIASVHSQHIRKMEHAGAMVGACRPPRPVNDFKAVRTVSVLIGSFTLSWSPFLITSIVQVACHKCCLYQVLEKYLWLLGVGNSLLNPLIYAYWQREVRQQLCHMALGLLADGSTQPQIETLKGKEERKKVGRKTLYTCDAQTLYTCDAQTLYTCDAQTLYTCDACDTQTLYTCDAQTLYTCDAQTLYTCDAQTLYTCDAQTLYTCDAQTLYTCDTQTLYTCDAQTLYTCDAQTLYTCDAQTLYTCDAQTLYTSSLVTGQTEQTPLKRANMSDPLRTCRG

[2] = target: T2, Glucose-dependent insulinotropic receptor (Homo sapiens) (UniProt Q8TDV5); assay: […] of human GPR119 activity by homogeneous time resolved fluorescence cyclase (cAMP) assay relative to AR231453; type: functional
T2 sequence (whole entry): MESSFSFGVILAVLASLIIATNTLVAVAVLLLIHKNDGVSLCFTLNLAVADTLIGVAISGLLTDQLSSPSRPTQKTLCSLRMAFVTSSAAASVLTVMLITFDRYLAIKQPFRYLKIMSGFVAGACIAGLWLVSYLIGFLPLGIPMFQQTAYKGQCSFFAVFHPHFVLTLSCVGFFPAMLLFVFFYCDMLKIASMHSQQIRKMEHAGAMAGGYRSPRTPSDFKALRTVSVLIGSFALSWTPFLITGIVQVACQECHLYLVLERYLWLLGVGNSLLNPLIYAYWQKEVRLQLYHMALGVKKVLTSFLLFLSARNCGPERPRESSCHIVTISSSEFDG

[3] = target: T3, Glucose-dependent insulinotropic receptor (Rattus norvegicus) (UniProt Q7TQN8); assay: […] of rat GPR119 activity by homogeneous time resolved fluorescence cyclase (cAMP) assay relative to AR231453; type: functional
T3 sequence (whole entry): T1 sequence (Q7TQN8 whole entry)

[4] = target: T4, Glucose-dependent insulinotropic receptor (Homo sapiens, UniProt Q8TDV5); assay: […] of human GPR119 activity by homogeneous time resolved fluorescence cyclase (cAMP) assay; type: functional
T4 sequence (Q8TDV5 whole entry): T2 sequence (whole entry)

[5] = target: Cytochrome P450 2C9 (Homo sapiens, UniProt P11712); assay: Inhibition of CYP2C9 (unknown origin); type: ADME
Chain of Cytochrome P450 2C9 (P11712 whole entry): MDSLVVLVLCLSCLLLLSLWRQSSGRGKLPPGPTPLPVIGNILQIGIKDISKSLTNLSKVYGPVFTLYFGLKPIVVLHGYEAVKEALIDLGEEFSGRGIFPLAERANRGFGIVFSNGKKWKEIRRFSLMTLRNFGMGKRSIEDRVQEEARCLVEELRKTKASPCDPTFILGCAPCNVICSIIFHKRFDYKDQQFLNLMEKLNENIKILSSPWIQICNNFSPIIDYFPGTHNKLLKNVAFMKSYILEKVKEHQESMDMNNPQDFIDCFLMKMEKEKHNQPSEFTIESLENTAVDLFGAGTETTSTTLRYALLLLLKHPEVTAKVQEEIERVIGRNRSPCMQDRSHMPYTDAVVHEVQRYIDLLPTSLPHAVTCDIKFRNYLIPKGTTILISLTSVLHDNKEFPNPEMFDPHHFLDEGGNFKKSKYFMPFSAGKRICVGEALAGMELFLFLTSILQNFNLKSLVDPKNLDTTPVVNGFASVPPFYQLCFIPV

| SMILES | EC50 [1] | Efficacy [2] | Efficacy [3] | EC50 [4] | IC50 [5] |
| --- | --- | --- | --- | --- | --- |
| Cc1nc(S(C)(=O)=O)ccc1Oc1ncnc(OC2CCN(C(=O)O[C@@H](C)C(F)(F)F)CC2)c1F | 109 nM | 78% | 80% | 9.86 nM |  |
| Cc1nc(S(C)(=O)=O)ccc1Oc1ncnc(OC2CCN(C(=S)OC(C)C)CC2)c1F | 1050 nM | -32% | 47% | 69.9 nM |  |
| Cc1nc(S(C)(=O)=O)ccc1Nc1ncnc(OC2CCN(C(=O)OC(C)C)CC2)c1F | 265 nM | 77% | 85% | 132 nM | 5500 nM |
| Cc1nc(S(C)(=O)=O)ccc1Oc1ncnc(OC2CCN(C(=O)c3nc(C(C)(C)F)no3)CC2)c1F | 606 nM | 74% | 84% | 43.4 nM |  |
| Cc1nc(S(C)(=O)=O)ccc1Oc1ncnc(OC2CCN(C(=O)c3ncc(Cl)cn3)CC2)c1F | 30.9 nM | 83% | 77% | 6.12 nM |  |
| Cc1nc(S(C)(=O)=O)ccc1Oc1ncnc(OC2CCN(C(=O)C(C)(F)F)CC2)c1F | 239 nM | 76% | 87% | 37 nM |  |
| CCc1cnc(C(=O)N2CCC(Oc3ncnc(Oc4ccc(S(C)(=O)=O)nc4C)c3F)CC2)nc1 | 40.8 nM | 99% | 80% | 4.7 nM |  |
| Cc1nc(S(C)(=O)=O)ccc1Oc1ncnc(OC2CCN(C(=O)O[C@H](C)C(F)(F)F)CC2)c1F | 110 nM | 56% | 85% | 9.2 nM |  |
| Cc1nc(S(C)(=O)=O)ccc1Oc1ncnc(OC2CCN(C(=O)c3noc(C(C)C)n3)CC2)c1F | 176 nM | 72% | 81% | 21.2 nM |  |
| Cc1nc(S(C)(=O)=O)ccc1Oc1ncnc(OC2CCN(C(=O)SC3CCC3)CC2)c1F | 77.4 nM | 94% | 81% | 8.51 nM |  |
| Cc1nc(S(C)(=O)=O)ccc1Oc1ncnc(OC2CCN(C(=O)OC(C)(C)C(F)(F)F)CC2)c1F | 47.2 nM | 36% | 79% | 6.53 nM |  |
| Cc1nc(S(C)(=O)=O)ccc1Oc1ncnc(OC2CCN(C(=O)OC(C)(C)C#N)CC2)c1F | 1320 nM | 90% | 97% | 92.9 nM |  |
| Cc1nc(S(C)(=O)=O)ccc1Oc1ncnc(OC2CCN(C(=O)SC(C)C)CC2)c1F | 41.3 nM | 95% | 81% | 6.8 nM |  |
| Cc1nc(S(C)(=O)=O)ccc1Oc1ncnc(OC2CCN(C(=O)c3noc(C(C)(C)F)n3)CC2)c1F | 103 nM | 69% | 74% | 14 nM |  |
| CCC(F)(F)C(=O)N1CCC(Oc2ncnc(Oc3ccc(S(C)(=O)=O)nc3C)c2F)CC1 | 69.2 nM | 85% | 90% | 17.4 nM |  |
| Cc1nc(S(C)(=O)=O)ccc1Oc1ncnc(OC2CCN(C(=O)SC(C)(C)C)CC2)c1F | 30.7 nM | 87% | 76% | 4.83 nM |  |
| COc1c(Nc2ccc(S(C)(=O)=O)nc2C)ncnc1OC1CCN(C(=O)OC(C)C)CC1 [ADP-597] |  | 75% | 89% |  | 5800 nM |
| Cc1nc(S(C)(=O)=O)ccc1Oc1ncnc(OC2CCN(C(=O)OC3(C(F)(F)F)COC3)CC2)c1F | 342 nM | 66% | 84% | 29.3 nM |  |
| Cc1nc(S(C)(=O)=O)ccc1Oc1ncnc(OC2CCN(C(=O)C(F)(F)F)CC2)c1F | 880 nM | 52% | 76% | 151 nM |  |
| Cc1nc(S(C)(=O)=O)ccc1Oc1ncnc(OC2CCN(C(=O)C(C)(C)F)CC2)c1F | 296 nM | 66% | 74% | 76.3 nM |  |
| Cc1nc(S(C)(=O)=O)ccc1Oc1ncnc(OC2CCN(C(=O)C3CCCC3)CC2)c1F | 407 nM | 87% | 83% | 72.8 nM |  |

More lines, now with the values ahead:

| EC50 [1] | Efficacy [2] | Efficacy [3] | EC50 [4] | IC50 [5] | SMILES |
| --- | --- | --- | --- | --- | --- |
| 49.6 nM | 81% | 97% | 7.91 nM |  | Cc1nc(S(C)(=O)=O)ccc1Oc1ncnc(OC2CCN(C(=O)OC(C)(C)C)CC2)c1F |
| 1680 nM | 72% | 84% | 186 nM |  | Cc1nc(S(C)(=O)=O)ccc1Oc1ncnc(OC2CCN(C(=O)O[C@@H](C)CF)CC2)c1F |
| 138 nM | 74% | 95% | 19.9 nM |  | Cc1nc(S(C)(=O)=O)ccc1Oc1ncnc(OC2CCN(C(=O)OC(C)(C)CF)CC2)c1F |
| 333 nM | 65% | 83% | 22 nM |  | CCC1(OC(=O)N2CCC(Oc3ncnc(Oc4ccc(S(C)(=O)=O)nc4C)c3F)CC2)CC1 |
| 1520 nM | 59% | 79% | 196 nM |  | Cc1nc(S(C)(=O)=O)ccc1Oc1ncnc(OC2CCN(C(=O)O[C@H](C)CF)CC2)c1F |
| 167 nM | 65% | 81% | 13.6 nM |  | Cc1nc(S(C)(=O)=O)ccc1Oc1ncnc(OC2CCN(C(=O)OC3CCC3)CC2)c1F |
| 63.3 nM | 38% | 82% | 14.3 nM |  | Cc1nc(S(C)(=O)=O)ccc1Oc1ncnc(OC2CCN(C(=O)OC3(C(F)(F)F)CCC3)CC2)c1F |
| 166 nM | 93% | 77% | 13.2 nM |  | Cc1nc(S(C)(=O)=O)ccc1Oc1ncnc(OC2CCN(C(=O)SC3(C)CC3)CC2)c1F |
| 48.8 nM |  | 49% |  |  | Cc1nc(S(C)(=O)=O)ccc1Oc1ncnc(OC2CCN(C(=S)OC3(C)CC3)CC2)c1F |
| 126 nM | 103% | 80% | 24.9 nM |  | Cc1nc(S(C)(=O)=O)ccc1Oc1ncnc(OC2CCN(C(=O)SC3CC3)CC2)c1F |
| 2500 nM | 58% | 66% | 326 nM |  | Cc1nc(S(C)(=O)=O)ccc1Oc1ncnc(OC2CCN(C(=O)OC3COC3)CC2)c1F |
| 142 nM | 75% | 77% | 21 nM | > 50000 nM | Cc1nc(S(C)(=O)=O)ccc1Oc1ncnc(OC2CCN(C(=O)OC(C)C)CC2)c1F |
|  | 72% |  | 761 nM |  | Cc1nc(S(C)(=O)=O)ccc1Oc1ncnc(OC2CCN(C(=O)C3(C)CC3)CC2)c1F |
| 123 nM | 99% | 91% | 24.7 nM |  | Cc1nc(S(C)(=O)=O)ccc1Oc1ncnc(OC2CCN(C(=O)C3(F)CCC3)CC2)c1F |

Source: ChEMBL document CHEMBL3352461, “Discovery and optimization of 5-fluoro-4,6-dialkoxypyrimidine GPR119 agonists” (Bioorg Med Chem Lett, 2014)
